According to PubChem BioAssay (NCI):
“And” between values parts separate entries of the source, which are not always exact repeats. Identical values can stand only once.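 Protocol summary: plate cells (96-well), add compound at 5 concentrations, incubate 48 h, interpolate endpoints linearly. GI50 is the concentration that inhibits growth by half. The concentration for full growth arrest is given as TGI.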

Key:
Assay in all cases: NCI-60 cell line screen, 48 h
OVCAR-8 ovarian = tested on: OVCAR-8 ovarian
NCI-H460 lung = tested on: NCI-H460 lung
M14 melanoma = tested on: M14 melanoma
CAKI-1 renal = tested on: CAKI-1 renal
UACC-257 melanoma = tested on: UACC-257 melanoma
HOP-92 NSCLC = tested on: HOP-92 NSCLC
NCI-H226 lung = tested on: NCI-H226 lung
SK-OV-3 ovarian = tested on: SK-OV-3 ovarian
OVCAR-4 ovarian = tested on: OVCAR-4 ovarian
LOX IMVI melanoma = tested on: LOX IMVI melanoma
U251 CNS = tested on: U251 CNS
MDA-MB-231 breast = tested on: MDA-MB-231 breast
EKVX NSCLC = tested on: EKVX NSCLC
SR leukemia = tested on: SR leukemia
MALME-3M melanoma = tested on: MALME-3M melanoma
IGROV1 ovarian = tested on: IGROV1 ovarian
SF-295 CNS = tested on: SF-295 CNS
MDA-N = tested on: MDA-N
MCF7 breast = tested on: MCF7 breast
NCI/ADR-RES ovarian = tested on: NCI/ADR-RES ovarian
SNB-19 CNS = tested on: SNB-19 CNS
HCT-15 colon = tested on: HCT-15 colon
SNB-75 CNS = tested on: SNB-75 CNS
786-0 renal = tested on: 786-0 renal
SF-539 CNS = tested on: SF-539 CNS
CCRF-CEM leukemia = tested on: CCRF-CEM leukemia
BT-549 breast = tested on: BT-549 breast
SF-268 CNS = tested on: SF-268 CNS
RPMI-8226 leukemia = tested on: RPMI-8226 leukemia
OVCAR-3 ovarian = tested on: OVCAR-3 ovarian
MDA-MB-435 = tested on: MDA-MB-435
SK-MEL-28 melanoma = tested on: SK-MEL-28 melanoma
NCI-H522 lung = tested on: NCI-H522 lung
NCI-H23 lung = tested on: NCI-H23 lung
A498 renal = tested on: A498 renal
RXF 393 renal = tested on: RXF 393 renal
COLO 205 colon = tested on: COLO 205 colon
HCT-116 colon = tested on: HCT-116 colon
HS 578T breast = tested on: HS 578T breast
ACHN renal = tested on: ACHN renal
HOP-62 NSCLC = tested on: HOP-62 NSCLC
SW-620 colon = tested on: SW-620 colon
OVCAR-5 ovarian = tested on: OVCAR-5 ovarian
A549 NSCLC = tested on: A549 NSCLC
DU-145 prostate = tested on: DU-145 prostate
KM12 colon = tested on: KM12 colon
K-562 leukemia = tested on: K-562 leukemia
SK-MEL-5 melanoma = tested on: SK-MEL-5 melanoma
HT29 colon = tested on: HT29 colon
MOLT-4 leukemia = tested on: MOLT-4 leukemia
SK-MEL-2 melanoma = tested on: SK-MEL-2 melanoma
PC-3 prostate = tested on: PC-3 prostate
UACC-62 melanoma = tested on: UACC-62 melanoma
SN12C renal = tested on: SN12C renal
T-47D breast = tested on: T-47D breast
UO-31 renal = tested on: UO-31 renal
TK-10 renal = tested on: TK-10 renal
HCC-2998 colon = tested on: HCC-2998 colon
HL-60(TB) leukemia = tested on: HL-60(TB) leukemia

With O=C(NNC(=O)c1ccccc1S)c1ccccc1S the TGI (OVCAR-8 ovarian) was 25 µM and > 100 µM, the GI50 (NCI-H460 lung) was 0.123 µM and the TGI (NCI-H460 lung) was 25 µM and > 100 µM. For the same molecule, the GI50 (M14 melanoma) was 23.3 µM, the TGI (M14 melanoma) was 25 µM and > 100 µM and the GI50 (CAKI-1 renal) was 5.51 µM. The TGI (CAKI-1 renal) was 25 µM and > 100 µM, the GI50 (UACC-257 melanoma) was 2.57 µM and the TGI (UACC-257 melanoma) was 25 µM and > 100 µM. It also gave a GI50 (HOP-92 NSCLC) greater than 100 µM, a TGI (HOP-92 NSCLC) greater than 100 µM and a GI50 (NCI-H226 lung) of 25.2 µM. For the same molecule, the TGI (NCI-H226 lung) was 25 µM and > 100 µM, the GI50 (SK-OV-3 ovarian) was 64.8 µM and the TGI (SK-OV-3 ovarian) was greater than 100 µM. The GI50 (OVCAR-4 ovarian) was 28 µM, the TGI (OVCAR-4 ovarian) was 25 µM and > 100 µM and the TGI (LOX IMVI melanoma) was 25 µM and > 100 µM. For the same molecule, the GI50 (U251 CNS) was 31.8 µM, the TGI (U251 CNS) was 25 µM and > 100 µM and the TGI (MDA-MB-231 breast) was greater than 100 µM. The GI50 (EKVX NSCLC) was 52.2 µM, the TGI (EKVX NSCLC) was 25 µM and > 100 µM and the GI50 (SR leukemia) was 3.37 µM. The TGI (SR leukemia) was 25 µM and 15.4 µM, the GI50 (MALME-3M melanoma) was 54.3 µM and the TGI (MALME-3M melanoma) was 25 µM and > 100 µM. For the same molecule, the GI50 (IGROV1 ovarian) was 16.9 µM, the TGI (IGROV1 ovarian) was 22.5 µM and > 100 µM and the GI50 (SF-295 CNS) was 21.8 µM. For the same molecule, the TGI (SF-295 CNS) was 25 µM and > 100 µM, the GI50 (MDA-N) was 22.3 µM and the TGI (MDA-N) was 25 µM and > 100 µM. For the same molecule, the TGI (MCF7 breast) was greater than 100 µM, the GI50 (NCI/ADR-RES ovarian) was 25.9 µM and the TGI (NCI/ADR-RES ovarian) was 25 µM and > 100 µM. For the same molecule, the GI50 (SNB-19 CNS) was 59.9 µM, the TGI (SNB-19 CNS) was 25 µM and > 100 µM and the GI50 (HCT-15 colon) was 7.97 µM. The TGI (HCT-15 colon) was 25 µM and > 100 µM, the GI50 (SNB-75 CNS) was 27.9 µM and the TGI (SNB-75 CNS) was 25 µM and > 100 µM. The GI50 (786-0 renal) was 13.4 µM, the TGI (786-0 renal) was 25 µM and > 100 µM and the GI50 (SF-539 CNS) was 37.1 µM. The TGI (SF-539 CNS) was 25 µM and > 100 µM, the GI50 (CCRF-CEM leukemia) was 1.85 µM and the TGI (CCRF-CEM leukemia) was 25 µM and 12.2 µM. For the same molecule, the GI50 (BT-549 breast) was 16.7 µM, the TGI (BT-549 breast) was 25 µM and > 100 µM and the GI50 (SF-268 CNS) was 16.6 µM. The TGI (SF-268 CNS) was 25 µM and > 100 µM, the GI50 (RPMI-8226 leukemia) was 9.24 µM and the TGI (RPMI-8226 leukemia) was 25 µM and > 100 µM. For the same molecule, the GI50 (OVCAR-3 ovarian) was 16.1 µM, the TGI (OVCAR-3 ovarian) was 25 µM and 65.4 µM and the GI50 (MDA-MB-435) was 33.2 µM. For the same molecule, the TGI (MDA-MB-435) was 25 µM and > 100 µM, the GI50 (SK-MEL-28 melanoma) was 35.3 µM and the TGI (SK-MEL-28 melanoma) was greater than 100 µM. For the same molecule, the GI50 (NCI-H522 lung) was 5.34 µM, the GI50 (NCI-H23 lung) was 20.8 µM and the TGI (NCI-H23 lung) was 25 µM and > 100 µM. For the same molecule, the TGI (A498 renal) was greater than 100 µM, the GI50 (RXF 393 renal) was 8.74 µM and the TGI (RXF 393 renal) was 25 µM and > 100 µM. For the same molecule, the GI50 (COLO 205 colon) was 28.2 µM, the TGI (COLO 205 colon) was 25 µM and > 100 µM and the GI50 (HCT-116 colon) was 8.17 µM. The TGI (HCT-116 colon) was 25 µM and 82.1 µM, the TGI (HS 578T breast) was greater than 100 µM and the TGI (ACHN renal) was 25 µM and > 100 µM. For the same molecule, the GI50 (HOP-62 NSCLC) was 21 µM, the TGI (HOP-62 NSCLC) was 25 µM and 68.3 µM and the GI50 (SW-620 colon) was 8.09 µM. The TGI (SW-620 colon) was 25 µM and > 100 µM, the GI50 (OVCAR-5 ovarian) was 68.2 µM and the TGI (OVCAR-5 ovarian) was 25 µM and > 100 µM. The GI50 (A549 NSCLC) was 28.7 µM, the TGI (A549 NSCLC) was 25 µM and > 100 µM and the TGI (DU-145 prostate) was 25 µM and > 100 µM. The GI50 (KM12 colon) was 37.3 µM, the TGI (KM12 colon) was 25 µM and > 100 µM and the GI50 (K-562 leukemia) was 5.4 µM. For the same molecule, the TGI (K-562 leukemia) was 25 µM and > 100 µM, the GI50 (SK-MEL-5 melanoma) was 34.2 µM and the TGI (SK-MEL-5 melanoma) was 25 µM and > 100 µM. The GI50 (HT29 colon) was 31.3 µM, the TGI (HT29 colon) was 25 µM and > 100 µM and the GI50 (MOLT-4 leukemia) was 3.58 µM. For the same molecule, the TGI (MOLT-4 leukemia) was 25 µM and > 100 µM, the TGI (SK-MEL-2 melanoma) was greater than 100 µM and the TGI (PC-3 prostate) was greater than 100 µM. The GI50 (UACC-62 melanoma) was 27.5 µM, the TGI (UACC-62 melanoma) was 25 µM and > 100 µM and the GI50 (SN12C renal) was 25.9 µM. For the same molecule, the TGI (SN12C renal) was 25 µM and > 100 µM, the GI50 (T-47D breast) was 6.88 µM and the TGI (T-47D breast) was 25 µM and > 100 µM. For the same molecule, the TGI (UO-31 renal) was greater than 100 µM, the GI50 (TK-10 renal) was greater than 100 µM and the TGI (TK-10 renal) was greater than 100 µM. The TGI (HCC-2998 colon) was greater than 100 µM, the GI50 (HL-60(TB) leukemia) was 3.12 µM and the TGI (HL-60(TB) leukemia) was 24.6 µM and 17.6 µM.
